Experimental data reported in PubChem BioAssay AID248 (DTP/NCI, 2004).
“And” between values parts separate entries of the source, which are not always exact repeats. Equal entries are not always repeated. Toxic doses and inconclusive results are not listed. Cut-off read from the data, not from the text of the source: active = T/C of 150% or more; inactive = T/C below 125%.

Tested on: L1210 leukemia ip in BDF1 mice, survival T/C
Test: NCI In Vivo Anticancer Drug Screen. Data for tumor model L1210 Leukemia (intraperitoneal) in B6D2F1 (BDF1) mice
Conditions: endpoint: mean survival time, higher = longer survival
Procedure, shortened: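 Value reflects the ratio of survival in compound-treated mice to survival in vehicle-treated controls, with both groups carrying the same transplanted tumor.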

[1] = dose: 100.0 mg/kg/injection, schedule: Q01DX001 (ip), vehicle: carboxymethylcellulose (CMC)
[2] = dose: 200.0 mg/kg/injection, schedule: Q01DX001 (ip), vehicle: carboxymethylcellulose (CMC)
[3] = dose: 400.0 mg/kg/injection, schedule: Q01DX001 (ip), vehicle: carboxymethylcellulose (CMC)
[4] = dose: 50.0 mg/kg/injection, schedule: Q01DX009 (ip), vehicle: saline
[5] = dose: 100.0 mg/kg/injection, schedule: Q01DX009 (ip), vehicle: saline
[6] = dose: 200.0 mg/kg/injection, schedule: Q01DX009 (ip), vehicle: saline
[7] = dose: 100.0 mg/kg/injection, schedule: Q04DX003 (ip), vehicle: Klucel (hydroxypropylcellulose) (HPC)
[8] = dose: 200.0 mg/kg/injection, schedule: Q04DX003 (ip), vehicle: Klucel (hydroxypropylcellulose) (HPC)
[9] = dose: 400.0 mg/kg/injection, schedule: Q04DX003 (ip), vehicle: Klucel (hydroxypropylcellulose) (HPC)
[10] = dose: 100.0 mg/kg/injection, schedule: Q01DX001 (ip), vehicle: saline
[11] = dose: 200.0 mg/kg/injection, schedule: Q01DX001 (ip), vehicle: saline
[12] = dose: 400.0 mg/kg/injection, schedule: Q01DX001 (ip), vehicle: saline
[13] = dose: 50.0 mg/kg/injection, schedule: Q01DX001 (ip), vehicle: carboxymethylcellulose (CMC)
[14] = dose: 100.0 mg/kg/injection, schedule: Q04DX003 (ip), vehicle: saline with Tween-80
[15] = dose: 200.0 mg/kg/injection, schedule: Q04DX003 (ip), vehicle: saline with Tween-80
[16] = dose: 400.0 mg/kg/injection, schedule: Q04DX003 (ip), vehicle: saline with Tween-80
[17] = dose: 100.0 mg/kg/injection, schedule: Q01DX009 (ip), vehicle: saline with Tween-80
[18] = dose: 200.0 mg/kg/injection, schedule: Q01DX009 (ip), vehicle: saline with Tween-80

Measured: T/C

CCCCOB1OC(c2ccccc2)(c2ccccc2)c2ccccc2C(c2ccccc2)(c2ccccc2)O1
inactive: [1] 91 % of control | [2] 91 % of control | [3] 98 % of control

Cc1cccc(Cl)c1NC(=O)C(C)N1CCCC1 (centres undefined)
inactive: dose: 12.5 mg/kg/injection, schedule: Q01DX009 (ip), vehicle: saline 101 % of control | dose: 25.0 mg/kg/injection, schedule: Q01DX009 (ip), vehicle: saline 98 % of control | [4] 93 % of control

OCC1COCOC1
inactive: [4] 104 % of control | [5] 106 % of control | dose: 100.0 mg/kg/injection, schedule: Q04DX003 (ip), vehicle: acetone 100 % of control | [6] 106 % of control | dose: 200.0 mg/kg/injection, schedule: Q04DX003 (ip), vehicle: acetone 105 % of control | dose: 400.0 mg/kg/injection, schedule: Q04DX003 (ip), vehicle: acetone 105 % of control

Cc1ccc(NC(Nc2ccc(C)c(Cl)c2)C(Cl)(Cl)Cl)cc1Cl
inactive: dose: 100.0 mg/kg/injection, schedule: Q01DX009 (ip), vehicle: Klucel (hydroxypropylcellulose) (HPC) 96 % of control | [7] 92 % of control | dose: 200.0 mg/kg/injection, schedule: Q01DX009 (ip), vehicle: Klucel (hydroxypropylcellulose) (HPC) 92 % of control | [8] 118 % of control | dose: 400.0 mg/kg/injection, schedule: Q01DX009 (ip), vehicle: Klucel (hydroxypropylcellulose) (HPC) 89 % of control | [9] 103 % of control

CCCCNC(C)(C)C(SSSC(c1ccc(Cl)cc1)C(C)(C)NCCCC)c1ccc(Cl)cc1 (centres undefined)
inactive: dose: 12.0 mg/kg/injection, schedule: Q01DX009 (ip), vehicle: Klucel (hydroxypropylcellulose) (HPC) 104 % of control | dose: 25.0 mg/kg/injection, schedule: Q01DX009 (ip), vehicle: Klucel (hydroxypropylcellulose) (HPC) 100 % of control | dose: 50.0 mg/kg/injection, schedule: Q01DX009 (ip), vehicle: Klucel (hydroxypropylcellulose) (HPC) 100 % of control

NOCc1cnccn1
inactive: dose: 75.0 mg/kg/injection, schedule: Q01DX001 (ip), vehicle: saline 92 % of control | dose: 150.0 mg/kg/injection, schedule: Q01DX001 (ip), vehicle: saline 96 % of control | dose: 300.0 mg/kg/injection, schedule: Q01DX001 (ip), vehicle: saline 88 % of control

CCC(=O)OC1(c2ccccc2)CCN(CCCc2ccccc2Cl)CC1
inactive: dose: 3.13 mg/kg/injection, schedule: Q04DX002 (ip), vehicle: saline with Tween-80 103 % of control | dose: 6.25 mg/kg/injection, schedule: Q04DX002 (ip), vehicle: saline with Tween-80 106 % of control | dose: 12.5 mg/kg/injection, schedule: Q04DX002 (ip), vehicle: saline with Tween-80 103 % of control | dose: 25.0 mg/kg/injection, schedule: Q04DX002 (ip), vehicle: saline with Tween-80 106 % of control

NNP(=O)(c1ccccc1)c1ccccc1
inactive: [10] 108 % of control | [11] 102 % of control | [12] 102 % of control

COc1ccc(OC)c(C(=O)CCC(=O)O)c1
inactive: [13] 94 % of control | [1] 110 % of control | [2] 100 % of control | [3] 107 % of control

COc1cc(Cl)ccc1NC(=O)Oc1ccc(C(=O)OCc2ccccc2)cc1
inactive: [5] 103 % of control | [6] 97 % of control | dose: 400.0 mg/kg/injection, schedule: Q01DX009 (ip), vehicle: saline 111 % of control

Nc1ccc(Cl)cc1-c1nc2ccccc2[nH]1
inactive: [14] 91 % of control | [15] 95 % of control | [16] 91 % of control

CNC(=O)NC1CCC(C)CC1 (centres undefined)
inactive: [10] 95 % of control | [11] 95 % of control | [12] 97 % of control

O=C(O)C1CCCCC1C(=O)Nc1cccc(C(F)(F)F)c1 (centres undefined)
inactive: dose: 12.5 mg/kg/injection, schedule: Q01DX009 (ip), vehicle: saline with Tween-80 102 % of control | dose: 25.0 mg/kg/injection, schedule: Q01DX009 (ip), vehicle: saline with Tween-80 101 % of control | dose: 50.0 mg/kg/injection, schedule: Q01DX009 (ip), vehicle: saline with Tween-80 88 % of control and 92 % of control | [14] 102 % of control | [15] 92 % of control

CC(=O)NNC(=O)c1ccccc1
inactive: [17] 101 % of control | [5] 106 % of control | [14] 106 % of control | [18] 109 % of control | [6] 113 % of control | [15] 108 % of control | [16] 101 % of control

C=CCOCC1CO1 (centres undefined)
inactive: dose: 75.0 mg/kg/injection, schedule: Q01DX001 (ip), vehicle: acetone 101 % of control | dose: 150.0 mg/kg/injection, schedule: Q01DX001 (ip), vehicle: acetone 97 % of control | dose: 300.0 mg/kg/injection, schedule: Q01DX001 (ip), vehicle: acetone 105 % of control

O=[N+]([O-])c1ccc(/C=N\NC(=S)Nc2ccc3cn[nH]c3c2)cc1
inactive: [13] 91 % of control | [1] 97 % of control | [2] 97 % of control | [3] 105 % of control

CN(C)c1ccc(/C=C2/CCCC/C2=N/O)cc1
inactive: [17] 98 % of control | [18] 92 % of control | dose: 400.0 mg/kg/injection, schedule: Q01DX009 (ip), vehicle: saline with Tween-80 88 % of control

CCOC(=O)c1cn[nH]c1/N=N/N(C)C
inactive: dose: 42.0 mg/kg/injection, schedule: Q01DX009 (ip), vehicle: carboxymethylcellulose (CMC) 113 % of control | dose: 178.0 mg/kg/injection, schedule: Q01DX001 (ip), vehicle: carboxymethylcellulose (CMC) 110 % of control | dose: 267.0 mg/kg/injection, schedule: Q01DX001 (ip), vehicle: carboxymethylcellulose (CMC) 112 % of control

CCC1CN2C(=N1)c1ccccc1-c1cc(Br)ccc12 (centres undefined)
inactive: dose: 2.5 mg/kg/injection, schedule: Q01DX009 (ip), vehicle: Klucel (hydroxypropylcellulose) (HPC) 104 % of control | dose: 2.5 mg/kg/injection, schedule: Q04DX003 (ip), vehicle: Klucel (hydroxypropylcellulose) (HPC) 100 % of control | dose: 5.0 mg/kg/injection, schedule: Q01DX009 (ip), vehicle: Klucel (hydroxypropylcellulose) (HPC) 98 % of control | dose: 5.0 mg/kg/injection, schedule: Q04DX003 (ip), vehicle: Klucel (hydroxypropylcellulose) (HPC) 100 % of control | dose: 10.0 mg/kg/injection, schedule: Q01DX009 (ip), vehicle: Klucel (hydroxypropylcellulose) (HPC) 116 % of control | dose: 10.0 mg/kg/injection, schedule: Q04DX003 (ip), vehicle: Klucel (hydroxypropylcellulose) (HPC) 96 % of control

Nc1[nH]c(=S)[nH]c(=O)c1N
inactive: dose: 12.0 mg/kg/injection, schedule: Q01DX009 (ip), vehicle: other 102 % of control | dose: 12.0 mg/kg/injection, schedule: Q04DX003 (ip), vehicle: saline 97 % of control | dose: 25.0 mg/kg/injection, schedule: Q01DX009 (ip), vehicle: other 102 % of control | dose: 25.0 mg/kg/injection, schedule: Q04DX003 (ip), vehicle: saline 104 % of control | dose: 50.0 mg/kg/injection, schedule: Q01DX009 (ip), vehicle: other 105 % of control | dose: 50.0 mg/kg/injection, schedule: Q04DX003 (ip), vehicle: saline 118 % of control | dose: 125.0 mg/kg/injection, schedule: Q01DX Z (ip), vehicle: methylcellulose (MC) 106 % of control | dose: 250.0 mg/kg/injection, schedule: Q01DX Z (ip), vehicle: methylcellulose (MC) 117 % of control

CC(=O)Nc1ccc2c(c1)C(=Nc1ccccc1)c1ccccc1-2
inactive: [14] 91 % of control | [15] 91 % of control | [16] 91 % of control

CC(=O)Nc1ccc(OC(=O)Nc2ccc(C)cc2[N+](=O)[O-])cc1
inactive: [7] 91 % of control | [8] 102 % of control | [9] 106 % of control
